Series [1] can be described thus: Toxicity in male Wistar rat assessed as gastrointestinal damage by measuring level-1 ulcers with <1 mm area at 50 mg/kg administered by gavage and measured after 6 hrs. Particulars: in vivo, po. The series is classed as organism-based.
Series [2] relates to Rattus norvegicus. Briefly: Antiarthritic activity in Freund's complete adjuvant induced Lewis rat model of arthritis assessed as reduction in IL-17 protein expression at 20 mg/kg, po administered every 24 to 48 hrs for 28 days post immunization starting from day 8 post immunization by Western blot analysis. The series is classed as functional, organism-based. Conditions: time 21.0 day.

Series [3] has as its system Rattus norvegicus. Briefly: Antiarthritic activity in Freund's complete adjuvant induced Lewis rat model of arthritis assessed as reduction in joint tissue damage by measuring reduction in cartilage degeneration at 20 mg/kg, po administered every 24 hrs for 28 days post immunization starting from day 8 post immunization by H and E staining based analysis. The series is classed as functional, organism-based. Conditions: time 21.0 day.

Series [4] in a line: Toxicity in male Wistar rat assessed as gastrointestinal damage by measuring level-3 ulcers with >3 mm area at 100 mg/kg administered by gavage and measured after 6 hrs. The series is classed as organism-based. Conditions: in vivo, po.
Series [5] can be described thus: Toxicity in male Wistar rat assessed as gastrointestinal damage by measuring ulcer index at 100 mg/kg administered by gavage and measured after 6 hrs. The series is classed as organism-based. Conditions: in vivo, po.
The test system of series [6] is RAW264.7. The series is described as follows: Cytotoxicity against LPS-induced mouse RAW264.7 cells assessed as reduction in cell viability at 30 uM pretreated for 1 hr followed by LPS addition and measured after 24 hrs by MTT assay. The series is classed as toxicity, cell-based. Conditions: raw264.7, 25 h. (Tetrazolium assays rely on reduction of a dye to a coloured formazan, in cell work by metabolically active cells.)

The species named for series [7] is Mus musculus. The series is described as follows: Analgesic activity in mouse model assessed as reduction in acetic acid induced inflammatory pain. The series is classed as functional, organism-based.
Series [8] relates to RAW264.7. The series is described as follows: Antiinflammatory activity against LPS-induced mouse RAW264.7 cells assessed as inhibition of COX-2 protein expression pretreated for 1 hr followed by LPS stimulation and measured after 24 hrs by Western blot analysis. The series is classed as functional, cell-based. Conditions: dose 2.5-10 µM, time 25.0 hrs. On the technique in general: A western blot detects proteins with antibodies after separation by electrophoresis.

The species named for series [9] is Mus musculus. Briefly: Antiinflammatory activity in mouse model of cotton pellet implantation-induced granuloma. The series is classed as functional, organism-based.
A short description of series [10]: Hepatotoxicity in male Wistar rat assessed as effect on glutamic pyruvic transaminase level at 20 mg/kg, po administered for 3 days. The series is classed as toxicity, organism-based. Particulars: in vivo, 72 h, time 3 day.
Series [11] can be described thus: Toxicity in Lewis rat model of Freund's complete adjuvant induced arthritis assessed as effect on growth by measuring reduction in body weight at 20 mg/kg, po administered every 24 to 48 hrs for 28 days post immunization starting from day 8 post immunization. The series is classed as organism-based. Particulars: in vivo, 504 h, time 21 day.
In series [12] the target is T1, Prostaglandin G/H synthase 2 (Mus musculus) (UniProt Q05769).
T1 sequence (whole entry): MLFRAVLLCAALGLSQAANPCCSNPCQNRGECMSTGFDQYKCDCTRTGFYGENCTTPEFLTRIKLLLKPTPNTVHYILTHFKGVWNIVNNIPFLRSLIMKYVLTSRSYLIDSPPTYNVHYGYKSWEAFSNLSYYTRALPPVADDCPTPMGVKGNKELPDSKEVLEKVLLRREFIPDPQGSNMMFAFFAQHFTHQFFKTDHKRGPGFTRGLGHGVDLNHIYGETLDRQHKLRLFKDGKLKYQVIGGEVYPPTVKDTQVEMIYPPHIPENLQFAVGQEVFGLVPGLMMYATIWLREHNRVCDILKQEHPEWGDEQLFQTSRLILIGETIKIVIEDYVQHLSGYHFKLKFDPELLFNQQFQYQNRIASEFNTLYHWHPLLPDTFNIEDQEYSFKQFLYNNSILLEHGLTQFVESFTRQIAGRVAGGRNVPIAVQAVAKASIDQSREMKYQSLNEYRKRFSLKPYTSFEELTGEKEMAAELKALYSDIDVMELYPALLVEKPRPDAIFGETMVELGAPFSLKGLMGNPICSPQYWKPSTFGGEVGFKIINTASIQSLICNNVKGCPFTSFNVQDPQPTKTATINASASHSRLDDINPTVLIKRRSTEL
Briefly: Binding affinity to COX-2 in LPS-induced mouse RAW264.7 cells assessed as thermal stability at 30 uM pretreated with LPS for 24 hrs followed by compound addition and measured after 2 hrs by CETSA. The series is classed as cell-based.

The subject of series [13] is RAW264.7. Briefly: Antiinflammatory activity against LPS-induced mouse RAW264.7 cells assessed as inhibition of phosphorylated p38 MAPK protein expression pretreated for 1 hr followed by LPS stimulation and measured after 24 hrs by Western blot analysis. The series is classed as functional, cell-based. Conditions: dose 2.5-10 µM, time 25.0 hrs.
Series [14] can be described thus: Toxicity in male Wistar rat assessed as gastrointestinal damage by measuring number of ulcers at 100 mg/kg administered by gavage and measured after 6 hrs (reference value: 0). The series is classed as organism-based. Conditions: in vivo, po.
Series [15] has as its system Rattus norvegicus. The series is described as follows: Antiarthritic activity in Freund's complete adjuvant induced Lewis rat model of arthritis assessed as reduction in joint deformities induced walking and polyarthritis symptoms at 20 mg/kg, po administered every 24 to 48 hrs for 28 days post immunization starting from day 8 post immunization. The series is classed as functional, organism-based. Conditions: time 21.0 day.

For series [16], the system named is Rattus norvegicus. The series is described as follows: Immunomodulatory activity in Freund's complete adjuvant induced Lewis rat model of arthritis assessed as decrease in anti-IL-17 antibody expression in knee joint slices at 20 mg/kg, po administered every 24 to 48 hrs for 28 days post immunization starting from day 8 post immunization by immunohistochemistry analysis. The series is classed as functional, organism-based. Conditions: time 21.0 day.

Series [17] is described as follows: Toxicity in male Wistar rat assessed as gastrointestinal damage by measuring ulcer index at 50 mg/kg administered by gavage and measured after 6 hrs. The series is classed as organism-based. Conditions: in vivo, po.
Series [18] concerns Rattus norvegicus. Briefly: Antiarthritic activity in Freund's complete adjuvant induced Lewis rat model of arthritis assessed as reduction in PGE2 level in serum at 20 mg/kg, po administered every 24 to 48 hrs for 28 days post immunization starting from day 8 post immunization by ELISA. The series is classed as functional, organism-based. Particulars: time 21.0 day. A general note: ELISA stands for enzyme-linked immunosorbent assay.

Series [19] concerns Rattus norvegicus. Briefly: Antiarthritic activity in Freund's complete adjuvant induced Lewis rat model of arthritis assessed as reduction in joint deformities at 20 mg/kg, po administered every 24 to 48 hrs for 28 days post immunization starting from day 8 post immunization. The series is classed as functional, organism-based. Conditions: time 21.0 day.
Series [20] relates to Rattus norvegicus. Briefly: Antiarthritic activity in Freund's complete adjuvant induced Lewis rat model of arthritis assessed as modulation of immune system responses by measuring reduction in spleen weight at 20 mg/kg, po administered every 24 to 48 hrs for 28 days post immunization starting from day 8 post immunization. The series is classed as functional, organism-based. Particulars: time 21.0 day.

Series [21] deals with Rattus norvegicus. Briefly: Immunomodulatory activity in Freund's complete adjuvant induced Lewis rat model of arthritis assessed as increase in IL-10 level in serum at 20 mg/kg, po administered every 24 to 48 hrs for 28 days post immunization starting from day 8 post immunization by ELISA. The series is classed as functional, organism-based. Conditions: time 21.0 day.
The nature of series [22]: Toxicity in male Wistar rat assessed as gastrointestinal damage by measuring level-2 ulcers with 1 to 3 mm area at 100 mg/kg administered by gavage and measured after 6 hrs. The series is classed as organism-based. Particulars: in vivo, po.
The nature of series [23]: Hepatotoxicity in male Wistar rat assessed as effect on glutamic oxalacetic transaminase level at 20 mg/kg, po administered for 3 days. The series is classed as toxicity, organism-based. Particulars: in vivo, 72 h, time 3 day.
The subject of series [24] is Rattus norvegicus. The series is described as follows: Antiarthritic activity in Freund's complete adjuvant induced Lewis rat model of arthritis assessed as reduction in joint tissue damage by measuring reduction in inflammatory cell infiltration at 20 mg/kg, po administered every 24 hrs for 28 days post immunization starting from day 8 post immunization by H and E staining based analysis. The series is classed as functional, organism-based. Conditions: time 21.0 day.

The structures appear in SMILES notation. Calls of active or inactive are those of the source. The rule behind the calls is not given here.

As for `CCCCC/C=C\C/C=C\C/C=C\C/C=C\CC/C=C(/OC(=O)C(C)c1ccc(C(=O)c2ccccc2)cc1)C(F)(F)F` (centres undefined), the Activity in series [1] is 0%; in series [4], 0%; in the series on RAW264.7 [6], “Non-Toxic”; in the series with RAW264.7 [8], “Dose-Dependent Effect”; in [10] it was “Non-Toxic”; in series [11] it was “Non-Toxic”. Besides, the Activity entry in the series with RAW264.7 [13] is “Dose-Dependent Effect”; in series [14], 7; in [22], 14%; in series [23], “Non-Toxic”. Moreover, the outcome (in the series with Rattus norvegicus [2]; in the series on Rattus norvegicus [3]; in the series filed under Mus musculus [7]; in the series listed under Mus musculus [9]; in [12]; in the series with Rattus norvegicus [15]) was Active. The result in the series on Rattus norvegicus [16], in the series on Rattus norvegicus [18], in the series on Rattus norvegicus [19], in the series with Rattus norvegicus [20], with Rattus norvegicus [21] and with Rattus norvegicus [24] was Active. For the same molecule, the figures for the UI in [5] and in [17] were 8 and 0, respectively.
